Experimental data from paper PMC4844649, “A first-in-Asian phase 1 study to evaluate safety, pharmacokinetics and clinical activity of VS-6063, a focal adhesion kinase (FAK) inhibitor in Japanese patients with advanced solid tumors” (Cancer Chemotherapy and Pharmacology, 2016).
“And” between values parts separate entries of the source, which are not always exact repeats. Identical values can stand only once. “Also recorded” adds a separate entry of the source. Like-named read-outs stand apart in the source and are kept apart here.

How the values were obtained:
[1] = phase 1 plasma pharmacokinetics, Cycle 1 Days 1 and 15; format: in vivo, human; conditions: for V z, individual values: Day 15, N = 2, individual values are presented; for half-life / Cmax / AUC(0-t) / Tmax / AUC(0-inf): human, plasma; for AUC(0-t): read-out: AUC0–12h, GM (CV %)
Procedure: Pharmacokinetic samples were to be collected for determination of VS-6063 concentration and potential metabolites at the time points of Pre-dose (within 30 min of VS-6063 dosing), postdose (15 min, 30 min, and 1, 2, 4, 8, 12, and 24 h after VS-6063 administration) during Cycle 1 on Days 1 and 15. The analytical laboratory measured plasma concentrations using a validated method. Phoenix WinNonlin (v 6.3, Pharsight Inc., Mountain View, CA) was used to estimate all pharmacokinetic parameters using the non-compartmental analysis tool and the plasma model. Cmax and Tmax were determined by direct assessment (no calculations) of the concentration versus time data. All AUC calculations followed the linear trapezoidal rule. As data permitted, the terminal elimination rate constant (lambda z, λz) for VS-6063 data was calculated. Lambda z was determined by the slope of the regression line of the natural log transformed concentrations versus time with at least three data points not including the Cmax and a correlation coefficient (R^2) of regression >0.90. In instances where the λz range was not at least twofold greater than the calculated half-life, the resulting values (AUCINF, CL/F and Vz/F) were deemed unreliable and were not reported, although the half-life will be calculated and reported if the λz range met the R^2 requirements. The following PK parameters were to be calculated: oral clearance (CL/F), maximum concentration (Cmax), Tmax, half-life (T1/2), area under the curve (AUC), and other relevant parameters.

[2] = preclinical; no reference given; cited from earlier work
UGT1A1 = conditions: in vitro; no reference given; cited from earlier work
[3] = phase 1 safety and tolerability (CTCAE v4.03) in Japanese patients with advanced solid tumors; format: in vivo; conditions: for Grade 3 AE of unconjugated hyperbilirubinemia: 200 mg BID cohort; for dose-limiting toxicities (DLTs): 200–600 mg BID
Procedure: This was a phase 1, open-label, dose-escalation study to evaluate the safety and PK of VS-6063, a FAK inhibitor in Japanese subjects with advanced solid tumor malignancies. This study was expected to enroll up to 18 evaluable subjects with non-hematologic malignancies if 6 subjects were assigned at each of the 3 planned dose levels of 200, 400, and 600 mg BID. VS-6063 was administered orally, BID, in continuous 21 day cycles. Subject enrollment proceeded according to a standard 3 + 3 design. In the absence of DLT, each subject received oral VS-6063 (BID) for a minimum of 21 days of continuous daily dosing (1 cycle) and could continue to receive additional cycles of study treatment until disease progression was documented or other treatment discontinuation criteria were met. All patients within a cohort were required to complete 1 cycle (21 days) of dosing with <1 of 3 or <2 of 6 subjects experiencing a DLT prior to escalation to the next dose level in a new cohort. Three subjects were to be treated at each dose level until the first instance of DLT, after which up to 6 subjects were to be treated at that dose level. […] The MTD was defined as the highest dose level studied at which <1 subject out of 3 or <2 subjects out of 6 experienced a DLT. The RP2D was to be determined in discussion among the sponsor, medical monitor, and investigators. Observations related to PK and any VS-6063-related toxicities were included in the rationale supporting the RP2D. Safety and tolerability was assessed by the incidence and severity of AEs as determined by National Cancer Institute (NCI) Common Terminology Criteria for Adverse Events (CTCAE v4.03). The antitumor activity of study treatment was assessed according to the Response Evaluation Criteria in Solid Tumors (RECIST v1.1).

[4] = po, 200 mg, 200 mg BID oral, n = 3, Day 1
[5] = po, 200 mg, 200 mg BID oral, n = 3, Day 15
[6] = po, 400 mg, 400 mg BID oral, n = 3, Day 1
[7] = po, 400 mg, 400 mg BID oral, n = 3, Day 15
[8] = po, 600 mg, 600 mg BID oral, n = 3, Day 1
[9] = po, 600 mg, 600 mg BID oral, n = 3, Day 15
[10] = 200 mg BID, N = 3, listed as defactinib
[11] = 400 mg BID, N = 3, listed as defactinib
[12] = 600 mg BID, N = 3, listed as defactinib
[13] = Total, N = 9, listed as defactinib

## CNC(=O)c1ccc(Nc2ncc(C(F)(F)F)c(NCc3nccnc3N(C)S(C)(=O)=O)n2)cc1 [VS-6063, defactinib]
[1]; 200 mg BID oral
  V z, individual values: 334 L and 99.6 L
[1]; 400 mg BID (RP2D)
  exposure compared with that previously reported in non-Japanese subjects: comparable; also recorded: consistent with previously reported data in non-Japanese patients; also recorded: comparable to that previously reported in non-Japanese patients
[1]; 600 mg BID oral
  V z, individual values: 158 L and 3060 L
[1]; 600 mg versus 400 mg BID
  increase in exposure at doses above 400 mg BID: did not result in a significant increase in VS-6063 exposure
[1]; 200–600 mg BID
  dose proportionality of plasma exposure (Cmax and AUC): less than dose proportional
[1]; oral, 200–600 mg BID, Days 1 and 15, read-out: median half-life values, range across all dose regimens and both PK study days
  half-life: 2.3 to 4.3 h
[1]; [4]
  Cmax: 630 ng/mL
  AUC(0-t): 3780 ng·h/mL
[1]; po, 200 mg, 200 mg BID oral, n = 3, Day 1, read-out: T max, median (range)
  Tmax: 2 h
[1]; po, 200 mg, 200 mg BID oral, n = 3, Day 1, read-out: t 1/2, median (range) (converted)
  half-life: 4.3 h
[1]; [5]
  Cmax: 930 ng/mL
  AUC(0-t): 6240 ng·h/mL
[1]; po, 200 mg, 200 mg BID oral, n = 3, Day 15, read-out: T max, median (range)
  Tmax: 2 h
[1]; po, 200 mg, 200 mg BID oral, n = 3, Day 15, read-out: t 1/2, median (range) (converted)
  half-life: 2.95 h
[1]; [6]
  Cmax: 670 ng/mL
  AUC(0-t): 3370 ng·h/mL
[1]; po, 400 mg, 400 mg BID oral, n = 3, Day 1, read-out: T max, median (range)
  Tmax: 2 h
[1]; po, 400 mg, 400 mg BID oral, n = 3, Day 1, read-out: t 1/2, median (range) (converted)
  half-life: 2.45 h
[1]; [7]
  Cmax: 960 ng/mL
  AUC(0-t): 5710 ng·h/mL
[1]; po, 400 mg, 400 mg BID oral, n = 3, Day 15, read-out: T max, median (range)
  Tmax: 2 h
[1]; po, 400 mg, 400 mg BID oral, n = 3, Day 15, read-out: t 1/2, median (range) (converted)
  half-life: 3 h
[1]; [8]
  Cmax: 610 ng/mL
  AUC(0-t): 2680 ng·h/mL
[1]; po, 600 mg, 600 mg BID oral, n = 3, Day 1, read-out: T max, median (range)
  Tmax: 2 h
[1]; po, 600 mg, 600 mg BID oral, n = 3, Day 1, read-out: t 1/2, median (range) (converted)
  half-life: 2.79 h
[1]; [9]
  Cmax: 980 ng/mL
  AUC(0-t): 4880 ng·h/mL
[1]; po, 600 mg, 600 mg BID oral, n = 3, Day 15, read-out: T max, median (range)
  Tmax: 2 h
[1]; po, 600 mg, 600 mg BID oral, n = 3, Day 15, read-out: t 1/2, median (range) (converted)
  half-life: 2.27 h
[1]; po, oral doses of 200–600 mg BID, all cohorts, read-out: Tmax range
  Tmax: 0.5 to 4 h
[1]; po, oral doses of 200–600 mg BID, all cohorts, read-out: median Tmax
  Tmax: 2 h
[1]; 200 mg BID oral, n = 3, Day 1
  AUC(0-inf): 4390 ng·h/mL
[1]; 400 mg BID oral, n = 3, Day 1
  AUC(0-inf): 3840 ng·h/mL
[1]; 600 mg BID oral, n = 3, Day 1
  AUC(0-inf): 3000 ng·h/mL
[2]
  potential target organs in toxicology studies: liver and gall bladder, gastrointestinal tract, hematopoietic system, testes/epididymis, and cardiovascular system
UGT1A1
  UGT1A1 inhibition: UGT1A1 inhibitors in vitro
[3]
  Grade 3 AE of unconjugated hyperbilirubinemia: Only one subject
[3]; listed as defactinib
  Grade 3 AE of unconjugated hyperbilirubinemia: Only one patient
[3]; 200 mg BID, N = 3
  Anemia, treatment-related adverse event: 0 n (%)
  Aspartate aminotransferase increased, treatment-related adverse event: 1 (33.3) n (%)
  Blood alkaline phosphatase increased, treatment-related adverse event: 2 (66.7) n (%)
  Blood bilirubin increased, treatment-related adverse event: 3 (100.0) n (%)
  Decreased appetite, treatment-related adverse event: 2 (66.7) n (%)
  Diarrhea, treatment-related adverse event: 0 n (%)
  Fatigue, treatment-related adverse event: 2 n (%) and 2 (66.7) n (%)
  Headache, treatment-related adverse event: 0 n (%)
  Nausea, treatment-related adverse event: 1 (33.3) n (%)
[3]; [10]
  Blood bilirubin increased, treatment-related adverse event: 3 n (%)
  Nausea, treatment-related adverse event: 1 n (%)
[3]; 400 mg BID, N = 3
  Anemia, treatment-related adverse event: 0 n (%)
  Aspartate aminotransferase increased, treatment-related adverse event: 0 n (%)
  Blood alkaline phosphatase increased, treatment-related adverse event: 0 n (%)
  Blood bilirubin increased, treatment-related adverse event: 2 (66.7) n (%)
  Decreased appetite, treatment-related adverse event: 1 (33.3) n (%)
  Diarrhea, treatment-related adverse event: 1 (33.3) n (%)
  Fatigue, treatment-related adverse event: 1 n (%) and 1 (33.3) n (%)
  Headache, treatment-related adverse event: 1 (33.3) n (%)
  Nausea, treatment-related adverse event: 0 n (%)
[3]; [11]
  Blood bilirubin increased, treatment-related adverse event: 2 n (%)
  Diarrhea, treatment-related adverse event: 1 n (%)
[3]; 600 mg BID, N = 3
  Anemia, treatment-related adverse event: 2 (66.7) n (%)
  Aspartate aminotransferase increased, treatment-related adverse event: 1 (33.3) n (%)
  Blood alkaline phosphatase increased, treatment-related adverse event: 0 n (%)
  Blood bilirubin increased, treatment-related adverse event: 2 (66.7) n (%)
  Decreased appetite, treatment-related adverse event: 1 (33.3) n (%)
  Diarrhea, treatment-related adverse event: 2 (66.7) n (%)
  Fatigue, treatment-related adverse event: 3 n (%) and 3 (100.0) n (%)
  Headache, treatment-related adverse event: 1 (33.3) n (%)
  Nausea, treatment-related adverse event: 1 (33.3) n (%)
[3]; [12]
  Blood bilirubin increased, treatment-related adverse event: 2 n (%)
  Diarrhea, treatment-related adverse event: 2 n (%)
  Nausea, treatment-related adverse event: 1 n (%)
[3]; Japanese subjects
  recommended Phase 2 dose (RP2D): 400 mg BID
[3]; Total, N = 9
  Anemia, treatment-related adverse event: 2 (22.2) n (%)
  Aspartate aminotransferase increased, treatment-related adverse event: 2 (22.2) n (%)
  Blood alkaline phosphatase increased, treatment-related adverse event: 2 (22.2) n (%)
  Blood bilirubin increased, treatment-related adverse event: 7 (77.8) n (%)
  Decreased appetite, treatment-related adverse event: 4 (44.4) n (%)
  Diarrhea, treatment-related adverse event: 3 (33.3) n (%)
  Fatigue, treatment-related adverse event: 6 (66.7) n (%)
  Headache, treatment-related adverse event: 2 (22.2) n (%)
  Nausea, treatment-related adverse event: 2 (22.2) n (%)
[3]; [13]
  Blood bilirubin increased, treatment-related adverse event: 7 n (%)
  Decreased appetite, treatment-related adverse event: 4 n (%)
  Diarrhea, treatment-related adverse event: 3 n (%)
  Fatigue, treatment-related adverse event: 6 n (%)
  Nausea, treatment-related adverse event: 2 n (%)
[3]; all dose cohorts
  AEs leading to death, SAEs, AEs leading to early study withdrawal: no AEs leading to death or SAEs, and no AEs leading to early study withdrawal
  concurrent increases in ALT or AST above ULN in subjects with hyperbilirubinemia: no increase in ALT or AST values associated with the increases in bilirubin
  proteinuria: no subject developed any grade of proteinuria
[3]; all dose cohorts, listed as defactinib
  concurrent increases in ALT or AST above ULN in subjects with hyperbilirubinemia: None of these subjects had concurrent increases in ALT or AST above ULN
[3]; all dose levels investigated
  tolerability: well tolerated at all dose levels investigated; also recorded: acceptable safety profile
[3]; any dose cohort
  ECG parameters and QTc interval: No clinically meaningful changes in any ECG parameter were observed for any dose cohort and no subject had a QTc interval ≥500 ms or QTc increase from baseline >30 ms
  dose-limiting toxicities (DLTs): No dose-limiting toxicities were observed at any dose level
[3]; any dose cohort, listed as defactinib
  dose-limiting toxicities (DLTs): No DLTs were reported in any dose cohort
[3]; of the 9 subjects
  subjects requiring dose modification for increased bilirubin: 1 subjects
[3]; one patient, 200 mg cohort, following interruption of study drug
  time to resolution of Grade 3 hyperbilirubinemia after onset: 6 days
[3]; typical onset, asymptomatic
  onset of hyperbilirubinemia after initiating treatment: ≤ 2 weeks
